Measurements published in ChEMBL document CHEMBL5463729, “Data for DCP probe BAY 1753011” (2023).

Key:
[1] = target: Citron Rho-interacting kinase (Homo sapiens) (UniProt O14578); assay: Inhibition of CRIK(h) at 10.0 µM in the Eurofins Kinase panel; settings: Compound concentration 10.0 uM
[2] = target: STE20/SPS1-related proline-alanine-rich protein kinase (Homo sapiens) (UniProt Q9UEW8); assay: Inhibition of STK39(h) at 10.0 µM in the Eurofins Kinase panel; settings: Compound concentration 10.0 uM
Oryctolagus cuniculus = species: Oryctolagus cuniculus; settings: Compound concentration 10.0 uM
[3] = target: RAC-beta serine/threonine-protein kinase (Homo sapiens) (UniProt P31751); assay: Inhibition of PKBbeta(h) at 10.0 µM in the Eurofins Kinase panel; settings: Compound concentration 10.0 uM
RAC-beta serine/threonine-protein kinase (Homo sapiens), sequence (P31751 whole entry): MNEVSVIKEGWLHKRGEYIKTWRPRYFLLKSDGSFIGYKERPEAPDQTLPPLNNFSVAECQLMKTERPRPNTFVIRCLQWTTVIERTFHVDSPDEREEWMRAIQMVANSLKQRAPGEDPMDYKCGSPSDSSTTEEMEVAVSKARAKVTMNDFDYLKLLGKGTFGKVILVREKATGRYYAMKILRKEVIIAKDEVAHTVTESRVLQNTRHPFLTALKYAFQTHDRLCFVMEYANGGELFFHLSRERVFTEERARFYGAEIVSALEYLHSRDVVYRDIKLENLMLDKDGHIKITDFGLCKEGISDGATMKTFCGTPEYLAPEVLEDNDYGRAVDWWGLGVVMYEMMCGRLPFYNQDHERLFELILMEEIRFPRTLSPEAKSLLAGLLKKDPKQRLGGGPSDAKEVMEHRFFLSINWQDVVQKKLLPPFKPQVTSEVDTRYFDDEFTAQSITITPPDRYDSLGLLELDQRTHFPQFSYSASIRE

[4] = target: Tyrosine-protein kinase ABL1 (Homo sapiens) (UniProt P00519); assay: Inhibition of Abl(h) at 10.0 µM in the Eurofins Kinase panel; settings: Compound concentration 10.0 uM
[5] = target: TRAF2 and NCK-interacting protein kinase (Homo sapiens) (UniProt Q9UKE5); assay: Inhibition of TNIK(h) at 10.0 µM in the Eurofins Kinase panel; settings: Compound concentration 10.0 uM
[6] = target: Glycogen synthase kinase-3 alpha (Homo sapiens) (UniProt P49840); assay: Inhibition of GSK3alpha(h) at 10.0 µM in the Eurofins Kinase panel; settings: Compound concentration 10.0 uM
[7] = target: Tyrosine-protein kinase Fgr (Homo sapiens) (UniProt P09769); assay: Inhibition of Fgr(h) at 10.0 µM in the Eurofins Kinase panel; settings: Compound concentration 10.0 uM
[8] = target: Insulin-like growth factor 1 receptor (Homo sapiens) (UniProt P08069); assay: Inhibition of IGF-1R(h) at 10.0 µM in the Eurofins Kinase panel; settings: Compound concentration 10.0 uM
[9] = target: Cyclin-dependent kinase 5/CDK5 activator 1 (Homo sapiens) (UniProt Q00535+Q15078); assay: Inhibition of CDK5/p25(h) at 10.0 µM in the Eurofins Kinase panel; type: protein-complex assay; settings: Compound concentration 10.0 uM
Cyclin-dependent kinase 5/CDK5 activator 1 (Homo sapiens), sequence (Q00535 whole entry): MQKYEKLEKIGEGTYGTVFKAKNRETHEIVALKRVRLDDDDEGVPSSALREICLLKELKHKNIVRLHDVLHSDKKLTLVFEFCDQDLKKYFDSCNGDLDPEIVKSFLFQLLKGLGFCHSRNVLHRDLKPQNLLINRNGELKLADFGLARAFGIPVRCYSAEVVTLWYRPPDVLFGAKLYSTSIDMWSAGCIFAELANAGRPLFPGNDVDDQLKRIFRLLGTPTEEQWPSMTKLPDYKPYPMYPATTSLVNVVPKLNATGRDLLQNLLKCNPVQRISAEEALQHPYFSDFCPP
Cyclin-dependent kinase 5/CDK5 activator 1 (Homo sapiens), sequence (Q15078 99-307 partner limits assumed): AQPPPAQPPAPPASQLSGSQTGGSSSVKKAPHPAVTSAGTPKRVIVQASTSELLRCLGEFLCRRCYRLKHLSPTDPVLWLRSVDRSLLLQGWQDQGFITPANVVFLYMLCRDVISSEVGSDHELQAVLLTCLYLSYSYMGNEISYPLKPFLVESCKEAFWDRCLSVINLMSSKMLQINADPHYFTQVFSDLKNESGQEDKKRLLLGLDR

[10] = target: Cannabinoid receptor 1 (Homo sapiens) (UniProt P21554); assay: Inhibition of Cannabinoid CB1 at compound concentration of 10.0 uM in the Eurofins-Panlabs radioligand binding assay (Eurofins_assay_217050); parameters: ligand concentration 2 nM; settings: Compound concentration 10.0 uM
[11] = target: Prostaglandin E2 receptor EP4 subtype (Homo sapiens) (UniProt P35408); assay: Inhibition of Prostanoid EP4 at 10 µM in the Eurofins-Panlabs radioligand binding assay (Eurofins_assay_268420); parameters: ligand concentration 1 nM; settings: Compound concentration 10.0 uM
[12] = target: Epidermal growth factor receptor (Homo sapiens) (UniProt P00533); assay: Inhibition of Protein Tyrosine Kinase, EGF Receptor at 10 µM in the Eurofins-Panlabs enzyme assay (Eurofins_assay_170020); parameters: substrate with concentration; settings: Compound concentration 10.0 uM
Epidermal growth factor receptor (Homo sapiens), sequence (P00533 whole entry): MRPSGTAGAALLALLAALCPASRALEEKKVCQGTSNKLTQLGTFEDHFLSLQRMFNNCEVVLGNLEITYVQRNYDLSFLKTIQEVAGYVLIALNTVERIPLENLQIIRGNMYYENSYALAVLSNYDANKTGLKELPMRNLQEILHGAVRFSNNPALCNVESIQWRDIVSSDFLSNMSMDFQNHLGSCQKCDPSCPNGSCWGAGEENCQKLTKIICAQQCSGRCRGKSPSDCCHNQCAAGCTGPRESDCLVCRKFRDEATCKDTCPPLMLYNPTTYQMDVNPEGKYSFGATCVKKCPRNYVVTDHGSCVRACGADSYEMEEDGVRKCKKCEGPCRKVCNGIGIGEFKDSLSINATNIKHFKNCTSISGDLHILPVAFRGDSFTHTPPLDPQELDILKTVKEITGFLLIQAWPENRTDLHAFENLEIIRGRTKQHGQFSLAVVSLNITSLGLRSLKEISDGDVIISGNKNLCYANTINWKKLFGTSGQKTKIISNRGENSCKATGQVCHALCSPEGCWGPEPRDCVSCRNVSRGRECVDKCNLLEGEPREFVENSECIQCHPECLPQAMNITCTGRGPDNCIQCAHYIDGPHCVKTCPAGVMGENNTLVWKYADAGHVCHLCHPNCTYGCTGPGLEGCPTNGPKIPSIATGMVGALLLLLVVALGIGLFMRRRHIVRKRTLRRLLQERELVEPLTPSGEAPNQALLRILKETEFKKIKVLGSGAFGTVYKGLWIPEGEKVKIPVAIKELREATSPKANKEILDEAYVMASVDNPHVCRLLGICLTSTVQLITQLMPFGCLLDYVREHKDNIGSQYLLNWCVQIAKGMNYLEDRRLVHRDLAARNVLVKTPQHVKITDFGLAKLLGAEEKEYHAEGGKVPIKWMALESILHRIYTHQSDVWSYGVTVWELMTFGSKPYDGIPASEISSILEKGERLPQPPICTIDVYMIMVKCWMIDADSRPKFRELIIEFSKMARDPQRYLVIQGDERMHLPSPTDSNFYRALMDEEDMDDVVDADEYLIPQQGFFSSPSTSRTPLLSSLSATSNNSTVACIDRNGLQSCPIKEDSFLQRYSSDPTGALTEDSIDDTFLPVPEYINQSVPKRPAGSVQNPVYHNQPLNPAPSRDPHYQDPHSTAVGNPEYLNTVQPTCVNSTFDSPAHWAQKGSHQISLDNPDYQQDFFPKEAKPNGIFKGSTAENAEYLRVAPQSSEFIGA

[13] = target: ATP-sensitive inward rectifier potassium channel 11 (Cricetulus griseus) (UniProt A0A3L7HHE1); assay: Inhibition of Potassium Channel [KATP] at 10 µM in the Eurofins-Panlabs radioligand binding assay (Eurofins_assay_265600); settings: Cricetinae; Compound concentration 10.0 uM
[14] = target: Rho-associated protein kinase 2 (Homo sapiens) (UniProt O75116); assay: Inhibition of ROCK-II(h) at 10.0 µM in the Eurofins Kinase panel; settings: Compound concentration 10.0 uM
[15] = target: Mitogen-activated protein kinase kinase kinase kinase 2 (Homo sapiens) (UniProt Q12851); assay: Inhibition of GCK (h) at 10.0 µM in the Eurofins Kinase panel; settings: Compound concentration 10.0 uM
[16] = target: Serine/threonine-protein kinase Chk2 (Homo sapiens) (UniProt O96017); assay: Inhibition of CHK2(h) at 10.0 µM in the Eurofins Kinase panel; settings: Compound concentration 10.0 uM
[17] = target: Calcitonin receptor (Homo sapiens) (UniProt P30988); assay: Inhibition of Calcitonin at 10 µM in the Eurofins-Panlabs radioligand binding assay (Eurofins_assay_213610); settings: Compound concentration 10.0 uM
[18] = target: Angiopoietin-1 receptor (Homo sapiens) (UniProt Q02763); assay: Inhibition of Tie2(h) at 10.0 µM in the Eurofins Kinase panel; settings: Compound concentration 10.0 uM
[19] = target: Kappa-type opioid receptor (Homo sapiens, UniProt P41145); assay: GPCRScan assay: inhibition of KOR; parameters: radioligand conc. used [nm] 0.6 – 1.2, parental cells stable HEK
Kappa-type opioid receptor, sequence (P41145 whole entry): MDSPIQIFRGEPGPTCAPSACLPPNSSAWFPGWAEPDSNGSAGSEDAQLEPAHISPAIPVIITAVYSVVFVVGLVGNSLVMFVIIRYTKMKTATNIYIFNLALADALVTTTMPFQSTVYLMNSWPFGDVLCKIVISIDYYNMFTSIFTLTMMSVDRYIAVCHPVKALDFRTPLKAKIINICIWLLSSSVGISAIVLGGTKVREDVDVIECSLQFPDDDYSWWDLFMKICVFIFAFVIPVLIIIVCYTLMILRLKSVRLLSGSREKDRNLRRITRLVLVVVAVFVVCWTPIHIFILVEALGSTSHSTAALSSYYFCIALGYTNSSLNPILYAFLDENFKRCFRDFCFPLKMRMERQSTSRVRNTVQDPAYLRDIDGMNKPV

[20] = target: Cathepsin G (Homo sapiens) (UniProt P08311); assay: Inhibition of Peptidase, CTSG (Cathepsin G) at 10 µM in the Eurofins-Panlabs enzyme assay (Eurofins_assay_112510); parameters: substrate with concentration; settings: Compound concentration 10.0 uM
Cathepsin G (Homo sapiens), sequence (P08311 whole entry): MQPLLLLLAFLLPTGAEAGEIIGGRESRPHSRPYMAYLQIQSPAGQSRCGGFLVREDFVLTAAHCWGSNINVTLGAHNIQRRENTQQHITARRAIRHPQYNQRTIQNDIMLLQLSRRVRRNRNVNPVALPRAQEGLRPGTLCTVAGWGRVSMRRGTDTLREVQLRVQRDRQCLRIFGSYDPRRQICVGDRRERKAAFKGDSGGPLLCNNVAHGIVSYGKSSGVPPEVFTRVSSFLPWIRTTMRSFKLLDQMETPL

[21] = target: Acetylcholinesterase (Homo sapiens) (UniProt P22303); settings: Compound concentration 10.0 uM
[22] = target: Serine/threonine-protein kinase tousled-like 1 (Homo sapiens) (UniProt Q9UKI8); assay: Inhibition of TLK1(h) at 10.0 µM in the Eurofins Kinase panel; settings: Compound concentration 10.0 uM
[23] = target: Cysteinyl leukotriene receptor 1 (Homo sapiens) (UniProt Q9Y271); assay: Inhibition of Leukotriene, Cysteinyl CysLT1 at 10 µM in the Eurofins-Panlabs radioligand binding assay (Eurofins_assay_250460); parameters: ligand concentration 0.3 nM, non-specific ligand with concentration 0.3 µM Leukotriene D4, incubation time 30 min, incubation temperature 25 °C; settings: Compound concentration 10.0 uM
[24] = target: T1, D(4) dopamine receptor (Homo sapiens) (UniProt P21917); assay: Inhibition of Dopamine D4.2 at 10 µM in the Eurofins-Panlabs radioligand binding assay (Eurofins_assay_219900); parameters: ligand concentration 0.5 nM; settings: Compound concentration 10.0 uM
T1 sequence (whole entry): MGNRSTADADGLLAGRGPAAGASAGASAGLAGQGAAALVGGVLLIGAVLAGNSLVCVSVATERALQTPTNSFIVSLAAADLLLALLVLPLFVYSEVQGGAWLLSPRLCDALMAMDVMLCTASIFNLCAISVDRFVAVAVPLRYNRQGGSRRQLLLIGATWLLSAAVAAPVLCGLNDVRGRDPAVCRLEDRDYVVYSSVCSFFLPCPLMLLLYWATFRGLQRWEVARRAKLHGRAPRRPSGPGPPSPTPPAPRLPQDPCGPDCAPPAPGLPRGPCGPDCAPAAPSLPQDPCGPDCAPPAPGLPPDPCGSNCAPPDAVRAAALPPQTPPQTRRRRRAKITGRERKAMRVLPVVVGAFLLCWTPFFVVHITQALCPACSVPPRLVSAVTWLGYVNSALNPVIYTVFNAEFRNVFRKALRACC

Oxytocin receptor = target: T2, Oxytocin receptor (Homo sapiens, UniProt P30559); assay: Inhibition of Oxytocin at 1 µM in the Eurofins-Panlabs radioligand binding assay (Eurofins_assay_260900); parameters: ligand concentration 0.8 nM, non-specific ligand with concentration 1 µM Oxytocin, incubation time 2 h, incubation temperature 25°C
T2 sequence (P30559 whole entry): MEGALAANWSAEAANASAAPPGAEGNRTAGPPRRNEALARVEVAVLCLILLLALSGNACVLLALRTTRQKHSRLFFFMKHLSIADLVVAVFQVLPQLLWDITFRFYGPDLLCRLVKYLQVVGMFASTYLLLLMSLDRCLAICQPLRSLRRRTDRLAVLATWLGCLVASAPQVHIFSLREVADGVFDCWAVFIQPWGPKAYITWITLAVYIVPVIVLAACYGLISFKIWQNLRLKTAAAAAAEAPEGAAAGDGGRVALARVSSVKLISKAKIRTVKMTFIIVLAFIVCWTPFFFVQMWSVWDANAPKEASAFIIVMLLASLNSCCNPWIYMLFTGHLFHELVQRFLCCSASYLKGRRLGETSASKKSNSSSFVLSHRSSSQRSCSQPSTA

[25] = target: Purinergic P2Y (Rattus norvegicus) (UniProt O35811+Q9EPX4+P49651+Q63371+P41232+O35881+Q6GUG4); settings: Compound concentration 10.0 uM

Citron Rho-interacting kinase (Homo sapiens), sequence (O14578 whole entry): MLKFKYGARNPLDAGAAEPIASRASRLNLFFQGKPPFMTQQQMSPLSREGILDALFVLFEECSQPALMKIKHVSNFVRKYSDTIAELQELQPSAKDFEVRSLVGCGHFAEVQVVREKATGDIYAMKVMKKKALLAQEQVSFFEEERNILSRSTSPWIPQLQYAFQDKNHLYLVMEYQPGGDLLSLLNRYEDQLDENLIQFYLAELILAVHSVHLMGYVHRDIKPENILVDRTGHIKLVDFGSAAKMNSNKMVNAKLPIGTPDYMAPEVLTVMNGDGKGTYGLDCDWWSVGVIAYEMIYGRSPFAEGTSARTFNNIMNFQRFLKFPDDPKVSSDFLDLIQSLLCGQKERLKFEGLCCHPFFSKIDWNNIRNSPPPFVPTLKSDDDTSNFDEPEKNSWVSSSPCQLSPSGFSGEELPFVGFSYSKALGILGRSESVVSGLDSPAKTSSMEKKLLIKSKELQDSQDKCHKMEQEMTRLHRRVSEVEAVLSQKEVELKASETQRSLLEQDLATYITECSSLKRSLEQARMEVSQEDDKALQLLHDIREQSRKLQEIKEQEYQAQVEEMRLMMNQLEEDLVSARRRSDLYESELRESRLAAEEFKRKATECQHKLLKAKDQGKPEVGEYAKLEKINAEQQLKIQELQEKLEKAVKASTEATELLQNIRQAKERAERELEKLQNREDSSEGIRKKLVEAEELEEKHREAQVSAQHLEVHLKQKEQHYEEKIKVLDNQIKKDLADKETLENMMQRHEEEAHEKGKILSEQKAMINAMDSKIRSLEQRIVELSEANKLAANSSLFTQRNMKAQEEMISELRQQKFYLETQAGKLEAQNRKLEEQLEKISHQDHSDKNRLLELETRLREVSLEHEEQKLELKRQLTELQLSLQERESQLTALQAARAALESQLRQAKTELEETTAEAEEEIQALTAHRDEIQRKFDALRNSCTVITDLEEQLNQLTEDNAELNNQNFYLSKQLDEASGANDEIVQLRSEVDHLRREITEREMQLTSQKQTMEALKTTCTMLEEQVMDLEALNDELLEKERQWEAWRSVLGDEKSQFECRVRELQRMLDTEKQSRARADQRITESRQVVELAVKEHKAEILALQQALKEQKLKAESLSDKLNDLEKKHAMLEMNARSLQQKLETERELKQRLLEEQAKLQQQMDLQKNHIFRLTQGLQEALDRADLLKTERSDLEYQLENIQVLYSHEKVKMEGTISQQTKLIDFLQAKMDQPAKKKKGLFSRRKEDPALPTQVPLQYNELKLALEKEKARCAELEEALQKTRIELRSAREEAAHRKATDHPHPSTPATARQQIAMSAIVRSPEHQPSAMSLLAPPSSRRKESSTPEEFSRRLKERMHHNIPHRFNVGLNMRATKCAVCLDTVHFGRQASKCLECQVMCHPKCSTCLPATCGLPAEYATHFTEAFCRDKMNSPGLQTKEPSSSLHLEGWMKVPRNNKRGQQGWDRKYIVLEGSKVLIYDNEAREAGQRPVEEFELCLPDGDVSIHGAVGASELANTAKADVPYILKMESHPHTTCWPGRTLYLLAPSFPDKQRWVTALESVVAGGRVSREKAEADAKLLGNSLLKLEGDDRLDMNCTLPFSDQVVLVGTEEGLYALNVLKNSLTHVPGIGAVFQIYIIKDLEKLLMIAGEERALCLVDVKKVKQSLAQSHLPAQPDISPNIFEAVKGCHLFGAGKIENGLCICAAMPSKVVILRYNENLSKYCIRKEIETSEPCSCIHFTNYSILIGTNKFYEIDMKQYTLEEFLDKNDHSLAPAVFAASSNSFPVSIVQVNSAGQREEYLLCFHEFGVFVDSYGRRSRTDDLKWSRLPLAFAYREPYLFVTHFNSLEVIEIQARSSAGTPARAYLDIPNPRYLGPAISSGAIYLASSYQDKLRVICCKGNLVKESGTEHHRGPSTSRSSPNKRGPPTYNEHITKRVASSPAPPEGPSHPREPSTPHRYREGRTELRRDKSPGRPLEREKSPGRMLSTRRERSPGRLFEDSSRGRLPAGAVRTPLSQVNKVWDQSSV

Structure (SMILES): O=c1n(Cc2cncn2-c2cccc(Cl)c2)nc(-c2ccc(Cl)cc2)n1C[C@H](O)C(F)(F)F
- inhibition [1]: -2.08%
- inhibition [2]: -4.72%
- inhibition (Oryctolagus cuniculus): -5%
- inhibition [3]: -3.28%
- inhibition [4]: -3.62%
- inhibition [5]: -7.62%
- inhibition [6]: -1.7%
- inhibition [7]: -7.12%
- inhibition [8]: -8.87%
- inhibition [9]: 2.09%
- inhibition [10]: 19%

Structure (SMILES): C[C@H](O)c1nc(Cn2nc(-c3ccc(Cl)cc3)n(C[C@H](O)C(F)(F)F)c2=O)nn1-c1cccc(Cl)c1 [PECAVAPTAN]
- inhibition [11]: 16%
- inhibition [12]: -6%
- inhibition [13]: 18%
- inhibition [14]: 18.1%
- inhibition [15]: -4.72%
- inhibition [16]: -8.52%
- inhibition [17]: -7%
- inhibition [18]: -8.17%
- Ki ([19]; read-out: Ki): 2170 nM
- Ki ([19]; read-out: pKi (converted)): 2140 nM
- inhibition [20]: 0%
- inhibition [21]: 2%
- inhibition [22]: -3.06%
- inhibition [23]: 5%
- inhibition [24]: 3%
- IC50 (Oxytocin receptor): 15.5 nM
- Ki (Oxytocin receptor): 5.06 nM
- inhibition [25]: 0%
